Laboratory results published in PubChem BioAssay AID1645848.
In brackets after ≈: the same amount, converted by molar mass.

Details: buffer; pH 7.4; 6.0 h; 150.0 µM
With CC(C)Oc1ccccc1C(=O)Nc1nc(-c2ccccc2)cs1 the solubility kinetic was < 1 µg/mL. A solubility kinetic of 42.2 µg/mL (≈ 105 µM) was found for Fc1cnc(-c2ccccc2C(F)F)nc1NCC1CCN(c2cnccn2)C1 (stereo not given) in this work. A solubility kinetic of 1.22 µg/mL (≈ 3.64 µM) was found for Cc1cccc(C)c1NC(=O)c1nc(SC(C)C)ncc1Cl in this work. For CC1=C(C(=O)Nc2ccccc2)C(c2ccccc2Br)N=C(Nc2nc3ccccc3o2)N1 (stereo not given), the solubility kinetic was < 1 µg/mL. A solubility kinetic of 42.8 µg/mL (≈ 127 µM) was found for c1ccc(Nc2cc3c(cn2)CN(Cc2cccs2)CCN3)cc1 in this work. In the case of Cc1ccc(CNc2ccccc2C(=O)Nc2nc(-c3ccccc3)cs2)cc1, the solubility kinetic was < 1 µg/mL. A solubility kinetic of 28.3 µg/mL (≈ 50.3 µM) was found for COC(C)(C)CCn1nc(Nc2c(C)cccc2C)c2cnc(Nc3ccc(OCCN4CCCC4)c(F)c3)nc21 in this work. In the case of COc1ccc(Cn2c(C(=O)O)c(CNCc3ccco3)c3ccc(C)cc32)cc1, the solubility kinetic was > 60 µg/mL. With O=C(O)c1cn(C2CC2)c2cc(N3C[C@@H]4C[C@H]3CN4)c(F)cc2c1=O the solubility kinetic was > 51 µg/mL. A solubility kinetic of 27.6 µg/mL (≈ 65.2 µM) was found for CCOC(=O)c1c(NC(=O)CN2CCCCC2)sc2c1CCN(C(=O)OCC)C2 in this work. With CN1CCN(CCCN2c3ccccc3Sc3ccc(S(=O)(=O)N(C)C)cc32)CC1.CS(=O)(=O)O.CS(=O)(=O)O the solubility kinetic was > 66 µg/mL. A solubility kinetic of 7.06 µg/mL (≈ 14.2 µM) was found for O=C(NCCCCc1ccccc1)C1CCN(c2nc(-c3ccc(Br)cc3)cs2)CC1 in this work. A solubility kinetic of 15.3 µg/mL (≈ 44.5 µM) was found for Cn1nnnc1Sc1ncnc2scc(-c3ccc(F)cc3)c12 in this work. With Cc1ccc(S(=O)(=O)Nc2ccccc2C(=O)Nc2cnc(-c3ccccc3)cn2)cc1 the solubility kinetic was < 1 µg/mL. In the case of COc1ccc(C2(C(=O)N3CCC(n4cc(-c5nc(C)no5)nn4)CC3)CC2)cc1, the solubility kinetic was > 60 µg/mL. With O=C(Nc1cncc(Cc2ccccc2)c1)c1ccc(-c2cccc([N+](=O)[O-])c2)o1 the solubility kinetic was < 1 µg/mL. With COc1ccc(-c2cc(-c3ccccc3)nc(SCC(=O)Nc3ccccc3C)c2C#N)cc1 the solubility kinetic was < 1 µg/mL. A solubility kinetic of 6.63 µg/mL (≈ 15.7 µM) was found for COc1ccc(CCNC(=O)Cn2c(=O)c3cccn3c3ccc(F)cc32)cc1OC in this work. For Nc1nc2c(s1)C(c1cccc(Cl)c1Cl)CC(=O)N2 (stereo not given), the solubility kinetic was < 1 µg/mL. A solubility kinetic of 31.7 µg/mL (≈ 82.8 µM) was found for CC[C@H](NC(=O)c1c(O)c(-c2ccccc2)nc2ccccc12)c1ccccc1 in this work. A solubility kinetic of 1.26 µg/mL (≈ 3.79 µM) was found for Fc1ccc(Nc2nc(-c3ccncc3)cc3ccccc23)cc1F in this work. For CCC(=O)NC(c1ccco1)c1cc(Cl)c2cccnc2c1O (stereo not given), the solubility kinetic was < 1 µg/mL. For O=C(Nc1ccc([S+](=O)([O-])Nc2nccs2)cc1)c1ccn[nH]1, the solubility kinetic was > 52 µg/mL. For COc1cc(Cl)c(C)cc1NS(=O)(=O)c1c(C)nc2sccn2c1=O, the solubility kinetic was < 1 µg/mL. A solubility kinetic of 38.5 µg/mL (≈ 124 µM) was found for CC(C)(C)CN1CCNc2cc(Nc3ccccc3)ncc2C1 in this work. A solubility kinetic of 1.56 µg/mL (≈ 4.82 µM) was found for c1ccc(-c2nnc3n2NC(c2ccc4c(c2)OCO4)S3)cc1 (stereo not given) in this work. In the case of Cc1ccc(-c2csc(NC(=O)c3ccncc3NS(=O)(=O)c3ccc(C)cc3)n2)cc1, the solubility kinetic was < 1 µg/mL. For COc1cc(-c2c(C#N)c(N)nc3c2c(C)nn3-c2ccc(F)cc2)ccc1O, the solubility kinetic was < 1 µg/mL. In the case of O=C(c1ccc2c(c1)ncn2-c1ccc(Cl)cc1)N1CCCCC1, the solubility kinetic was > 50 µg/mL. With COc1ccc(Cn2c(CCC(=O)Nc3cc(C)cc(C)c3)nc3cccnc32)cc1 the solubility kinetic was < 1 µg/mL. In the case of Fc1ccc(-c2nc(-c3ccncc3)nc3ccccc23)cc1F, the solubility kinetic was < 1 µg/mL. A solubility kinetic of 4.18 µg/mL (≈ 8.91 µM) was found for CNC(=O)c1ccccc1Nc1nc(Nc2ccc(N3CCOCC3)cc2OC)ncc1Cl in this work. With CC(C)CN(C[C@@H](O)[C@H](Cc1ccccc1)NC(=O)O[C@@H]1CO[C@H]2OCC[C@H]21)S(=O)(=O)c1ccc(N)cc1 the solubility kinetic was > 81 µg/mL. With CCCOC(=O)c1ccc(Oc2c(-c3ccc(O)cc3O)n[nH]c2C)cc1 the solubility kinetic was < 1 µg/mL. In the case of Cc1ccc2nc(NC3=NC(c4[nH]ncc4Cl)C4=C(CCCC4=O)N3)oc2c1 (stereo not given), the solubility kinetic was < 1 µg/mL. In the case of COc1ccc(-n2nc(C3CCN(C(=O)Cc4ccc(F)cc4)CC3)[nH]c2=O)cc1, the solubility kinetic was > 61 µg/mL. A solubility kinetic of 2.38 µg/mL (≈ 5.41 µM) was found for CCOc1ccc(N2CC(c3nc(-c4cc(OC)c(OC)c(OC)c4)no3)CC2=O)cc1 (stereo not given) in this work. In the case of O=C(Nc1ccc(-c2nc3cc(NC(=O)c4ccccc4Cl)ccc3o2)cc1)c1ccccc1Cl, the solubility kinetic was < 1 µg/mL. A solubility kinetic of 3.08 µg/mL (≈ 9.7 µM) was found for COc1ccccc1-c1csc(N2CCC(C(N)=O)CC2)n1 in this work. With CNC(=O)C1=C(C)NC(Nc2nc3ccccc3o2)=NC1c1[nH]ncc1Cl (stereo not given) the solubility kinetic was > 57 µg/mL. With Nc1ncnc2c1ncn2[C@H]1O[C@@H](CO)[C@@H](O)[C@H]1N the solubility kinetic was > 39 µg/mL. In the case of Cc1nc2ccc(Nc3nc(-c4ccncc4)nc4ccccc34)cc2s1, the solubility kinetic was < 1 µg/mL. A solubility kinetic of 1.03 µg/mL (≈ 3.52 µM) was found for Cc1ccc(-c2[nH]n3c(=O)c4c(nc3c2C)CCCC4)cc1 in this work. For CC(C)Nc1oc(-c2cccc3ccccc23)nc1C#N, the solubility kinetic was < 1 µg/mL. A solubility kinetic of 26.6 µg/mL (≈ 91.1 µM) was found for CC(=O)Nc1ncc(S(=O)(=O)N2CCOCC2)s1 in this work. For CN(Cc1ccc(/C=C/C(=O)NO)cc1)CC12CC3CC(CC(C3)C1)C2, the solubility kinetic was > 35 µg/mL. In the case of FC(F)(F)c1cc(-c2ccc(CNc3nc(-c4ccccc4C(F)(F)F)nc4ccsc34)cc2)ccn1, the solubility kinetic was < 1 µg/mL. A solubility kinetic of 15.2 µg/mL (≈ 37.1 µM) was found for COc1cccc(-n2nc(C(=O)O)cc2-c2ccc(C3CCCCC3)c(Cl)c2)c1 in this work. In the case of Cc1ccccc1C(=O)NC1CCN(c2ccc3nnc(C4CC4)n3n2)CC1, the solubility kinetic was > 56 µg/mL. A solubility kinetic of 8.8 µg/mL (≈ 21.6 µM) was found for COc1ccc(S(=O)(=O)N(C(=O)C(C)C)c2ccc3oc(=O)sc3c2)cc1 in this work.
